Test results taken from the supplement of paper PMC10307832.

Key:
Experiment in all cases: relative viability (nuclei count vs DMSO), 5 days (fraction); higher = more cells survive
[1] = compound: C[C@H]([C@@H](C(=O)N)NC(=O)[C@@H]1CSSC[C@@H](C(=O)N[C@H](C(=O)N[C@@H](C(=O)N[C@H](C(=O)N1)CCCCN)CC2=CNC3=CC=CC=C32)CC4=CC=C(C=C4)O)NC(=O)[C@@H](CC5=CC=CC=C5)N)O [CAP-232] + CC1(C)CCC(c2ccc(Cl)cc2)=C(CN2CCN(c3ccc(C(=O)NS(=O)(=O)c4ccc(N[C@H](CCN5CCOCC5)CSc5ccccc5)c(S(=O)(=O)C(F)(F)F)c4)cc3)CC2)C1 [Navitoclax] (partner 0.5 µM)
Outline: (§1)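 The day after seeding in 1536-well plates, lung cancer cell lines were treated by pin tool with a single drug, or with a fixed anchor-drug dose together with five library-drug doses (not always all listed) in √10 steps. After 5 days, a combined fix-and-stain solution (final 0.05% Triton X-100, 1% formaldehyde, 1 ug/ml Hoechst) was added. Nuclei counted on 4× images gave relative viability as treated counts over vehicle counts, reported as the median of duplicate plates.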

[2] = compound: C[C@H]([C@@H](C(=O)N)NC(=O)[C@@H]1CSSC[C@@H](C(=O)N[C@H](C(=O)N[C@@H](C(=O)N[C@H](C(=O)N1)CCCCN)CC2=CNC3=CC=CC=C32)CC4=CC=C(C=C4)O)NC(=O)[C@@H](CC5=CC=CC=C5)N)O [CAP-232] + COc1cccc2cc(-c3nc([C@H]4CC[C@H](C(=O)O)CC4)n4ncnc(N)c34)[nH]c12 [OSI-027] (partner 0.5 µM)
Outline: as §1

[3] = compound: C[C@H]([C@@H](C(=O)N)NC(=O)[C@@H]1CSSC[C@@H](C(=O)N[C@H](C(=O)N[C@@H](C(=O)N[C@H](C(=O)N1)CCCCN)CC2=CNC3=CC=CC=C32)CC4=CC=C(C=C4)O)NC(=O)[C@@H](CC5=CC=CC=C5)N)O [CAP-232] + CC(=O)Nc1cccc(-n2c(=O)n(C3CC3)c(=O)c3c(Nc4ccc(I)cc4F)n(C)c(=O)c(C)c32)c1 [Trametinib] (partner 0.02 µM)
Outline: as §1

[4] = compound: C[C@H]([C@@H](C(=O)N)NC(=O)[C@@H]1CSSC[C@@H](C(=O)N[C@H](C(=O)N[C@@H](C(=O)N[C@H](C(=O)N1)CCCCN)CC2=CNC3=CC=CC=C32)CC4=CC=C(C=C4)O)NC(=O)[C@@H](CC5=CC=CC=C5)N)O [CAP-232] + O=C(c1cc(Cc2n[nH]c(=O)c3ccccc23)ccc1F)N1CCN(C(=O)C2CC2)CC1 [Olaparib] (partner 8 µM)
Outline: as §1

[5] = compound: C[C@H]([C@@H](C(=O)N)NC(=O)[C@@H]1CSSC[C@@H](C(=O)N[C@H](C(=O)N[C@@H](C(=O)N[C@H](C(=O)N1)CCCCN)CC2=CNC3=CC=CC=C32)CC4=CC=C(C=C4)O)NC(=O)[C@@H](CC5=CC=CC=C5)N)O [CAP-232] + Cc1cc(Nc2cc(N3CCN(C)CC3)nc(Sc3ccc(NC(=O)C4CC4)cc3)n2)n[nH]1 [Tozasertib] (partner 0.1 µM)
Outline: as §1

Cell Line: COR-L 105
- relative viability ([1]; first compound 0.4 µM): 0.748
- relative viability ([1]; first compound 1.265 µM): 0.69
- relative viability ([1]; first compound 4 µM): 0.796
- relative viability ([1]; first compound 12.65 µM): 0.498
- relative viability ([2]; first compound 0.4 µM): 0.852
- relative viability ([2]; first compound 1.265 µM): 0.646
- relative viability ([2]; first compound 4 µM): 0.646
- relative viability ([2]; first compound 12.65 µM): 0.387
- relative viability ([3]; first compound 0.4 µM): 0.371
- relative viability ([3]; first compound 1.265 µM): 0.414
- relative viability ([3]; first compound 4 µM): 0.395
- relative viability ([3]; first compound 12.65 µM): 0.377
- relative viability ([4]; first compound 0.4 µM): 0.733
- relative viability ([4]; first compound 1.265 µM): 0.61
- relative viability ([4]; first compound 4 µM): 0.712
- relative viability ([4]; first compound 12.65 µM): 0.571
- relative viability ([5]; first compound 0.4 µM): 0.346
- relative viability ([5]; first compound 1.265 µM): 0.387
- relative viability ([5]; first compound 4 µM): 0.379
- relative viability ([5]; first compound 12.65 µM): 0.323

Cell Line: ChaGo-K-1
- relative viability ([1]; first compound 0.4 µM): 1.43
- relative viability ([1]; first compound 1.265 µM): 0.818
- relative viability ([1]; first compound 4 µM): 0.973
- relative viability ([1]; first compound 12.65 µM): 0.734
- relative viability ([2]; first compound 0.4 µM): 0.65
- relative viability ([2]; first compound 1.265 µM): 0.504
- relative viability ([2]; first compound 4 µM): 0.678
- relative viability ([2]; first compound 12.65 µM): 0.6
- relative viability ([3]; first compound 0.4 µM): 0.867
- relative viability ([3]; first compound 1.265 µM): 0.892
- relative viability ([3]; first compound 4 µM): 1.01
- relative viability ([3]; first compound 12.65 µM): 0.93
- relative viability ([4]; first compound 0.4 µM): 0.425
- relative viability ([4]; first compound 1.265 µM): 0.428
- relative viability ([4]; first compound 4 µM): 0.456
- relative viability ([4]; first compound 12.65 µM): 0.421
- relative viability ([5]; first compound 0.4 µM): 0.218
- relative viability ([5]; first compound 1.265 µM): 0.237
- relative viability ([5]; first compound 4 µM): 0.245
- relative viability ([5]; first compound 12.65 µM): 0.213

Cell Line: EKVX
- relative viability ([1]; first compound 0.4 µM): 1.07
- relative viability ([1]; first compound 1.265 µM): 1.07
- relative viability ([1]; first compound 4 µM): 0.951
- relative viability ([1]; first compound 12.65 µM): 0.714
- relative viability ([2]; first compound 0.4 µM): 0.724
- relative viability ([2]; first compound 1.265 µM): 0.779
- relative viability ([2]; first compound 4 µM): 0.667
- relative viability ([2]; first compound 12.65 µM): 0.64
- relative viability ([3]; first compound 0.4 µM): 0.583
- relative viability ([3]; first compound 1.265 µM): 0.342
- relative viability ([3]; first compound 4 µM): 0.268
- relative viability ([3]; first compound 12.65 µM): 0.331
- relative viability ([4]; first compound 0.4 µM): 0.901
- relative viability ([4]; first compound 1.265 µM): 0.95
- relative viability ([4]; first compound 4 µM): 0.993
- relative viability ([4]; first compound 12.65 µM): 0.804
- relative viability ([5]; first compound 0.4 µM): 0.352
- relative viability ([5]; first compound 1.265 µM): 0.376
- relative viability ([5]; first compound 4 µM): 0.422
- relative viability ([5]; first compound 12.65 µM): 0.31

Cell Line: EMC-BAC-2
- relative viability ([1]; first compound 0.4 µM): 1.23
- relative viability ([1]; first compound 1.265 µM): 1.25
- relative viability ([1]; first compound 4 µM): 1.38
- relative viability ([1]; first compound 12.65 µM): 0.935
- relative viability ([2]; first compound 0.4 µM): 0.407
- relative viability ([2]; first compound 1.265 µM): 0.324
- relative viability ([2]; first compound 4 µM): 0.328
- relative viability ([2]; first compound 12.65 µM): 0.358
- relative viability ([3]; first compound 0.4 µM): 0.757
- relative viability ([3]; first compound 1.265 µM): 0.864
- relative viability ([3]; first compound 4 µM): 0.859
- relative viability ([3]; first compound 12.65 µM): 0.415
- relative viability ([4]; first compound 0.4 µM): 0.52
- relative viability ([4]; first compound 1.265 µM): 0.47
- relative viability ([4]; first compound 4 µM): 0.469
- relative viability ([4]; first compound 12.65 µM): 0.398
- relative viability ([5]; first compound 0.4 µM): 0.304
- relative viability ([5]; first compound 1.265 µM): 0.276
- relative viability ([5]; first compound 4 µM): 0.289
- relative viability ([5]; first compound 12.65 µM): 0.247

Cell Line: EPLC-272H
- relative viability ([1]; first compound 0.4 µM): 1.37
- relative viability ([1]; first compound 1.265 µM): 1.29
- relative viability ([1]; first compound 4 µM): 1.17
- relative viability ([1]; first compound 12.65 µM): 0.964
- relative viability ([2]; first compound 0.4 µM): 0.275
- relative viability ([2]; first compound 1.265 µM): 0.284
- relative viability ([2]; first compound 4 µM): 0.285
- relative viability ([2]; first compound 12.65 µM): 0.262
- relative viability ([3]; first compound 0.4 µM): 0.261
- relative viability ([3]; first compound 1.265 µM): 0.258
- relative viability ([3]; first compound 4 µM): 0.281
- relative viability ([3]; first compound 12.65 µM): 0.28
- relative viability ([4]; first compound 1.265 µM): 0.935
- relative viability ([4]; first compound 4 µM): 0.761
- relative viability ([4]; first compound 12.65 µM): 0.31
- relative viability ([5]; first compound 0.4 µM): 0.25
- relative viability ([5]; first compound 1.265 µM): 0.182
- relative viability ([5]; first compound 4 µM): 0.288
- relative viability ([5]; first compound 12.65 µM): 0.389

Cell Line: H3255
- relative viability ([1]; first compound 0.4 µM): 0.629
- relative viability ([1]; first compound 1.265 µM): 0.426
- relative viability ([1]; first compound 4 µM): 0.556
- relative viability ([1]; first compound 12.65 µM): 0.242
- relative viability ([2]; first compound 0.4 µM): 0.567
- relative viability ([2]; first compound 1.265 µM): 0.538
- relative viability ([2]; first compound 4 µM): 0.63
- relative viability ([2]; first compound 12.65 µM): 0.811
- relative viability ([3]; first compound 0.4 µM): 0.608
- relative viability ([3]; first compound 4 µM): 0.543
- relative viability ([3]; first compound 12.65 µM): 0.436
- relative viability ([4]; first compound 0.4 µM): 0.569
- relative viability ([4]; first compound 1.265 µM): 0.587
- relative viability ([4]; first compound 4 µM): 0.552
- relative viability ([4]; first compound 12.65 µM): 0.433
- relative viability ([5]; first compound 0.4 µM): 0.612
- relative viability ([5]; first compound 1.265 µM): 0.733
- relative viability ([5]; first compound 4 µM): 0.791
- relative viability ([5]; first compound 12.65 µM): 0.893

Cell Line: HARA
- relative viability ([1]; first compound 0.4 µM): 1.14
- relative viability ([1]; first compound 1.265 µM): 1.16
- relative viability ([1]; first compound 4 µM): 1.13
- relative viability ([1]; first compound 12.65 µM): 1.21
- relative viability ([2]; first compound 0.4 µM): 0.436
- relative viability ([2]; first compound 1.265 µM): 0.554
- relative viability ([2]; first compound 4 µM): 0.613
- relative viability ([2]; first compound 12.65 µM): 0.44
- relative viability ([3]; first compound 0.4 µM): 0.323
- relative viability ([3]; first compound 1.265 µM): 0.9
- relative viability ([3]; first compound 4 µM): 0.643
- relative viability ([3]; first compound 12.65 µM): 0.506
- relative viability ([4]; first compound 0.4 µM): 0.823
- relative viability ([4]; first compound 1.265 µM): 0.784
- relative viability ([4]; first compound 4 µM): 0.865
- relative viability ([4]; first compound 12.65 µM): 0.609
- relative viability ([5]; first compound 0.4 µM): 0.0986
- relative viability ([5]; first compound 1.265 µM): 0.0955
- relative viability ([5]; first compound 4 µM): 0.144
- relative viability ([5]; first compound 12.65 µM): 0.0866
